Consider one compound from patent US9133163B2, “Dihydropyrazole GPR40 modulators” (Bristol-Myers Squibb Company, priority 2012, dated 2015).

Assay [1] relates to C57BL6 mice. The assay can be described thus: Acute oral glucose tolerance test. The format is in vivo. Particulars: % change in glucose AUC (0-180 min) from vehicle, 0.3 mg/kg oral, average of two experiments. The protocol: Acute Oral Glucose Tolerance Test
Ten week old C57BL6 mice were housed individually and fasted for 5 hours on the day of study. Tail vein sampling was performed from nicked tails to obtain plasma samples. Baseline plasma samples were taken at t=0. Mice were orally treated with vehicle or compounds co-administered with glucose (2 g/kg). Sampling thereafter from tails of treated mice at 20, 40, 60, 120 and 180 min provided data used for generating glucose excursion curves from which 0-180 min blood glucose excursion profiles were generated. The area under the curve (AUC) allowed for assessment of glucose lowering by compound treatments. Blood samples were collected in EDTA-treated tubes (MICROVETTE® CB300, Sarstedt, Numbrecht, Germany), stored on ice and spun @ 6000 rpm for 10 minutes. Plasma glucose was analyzed on the same day using an AU680 Clinical Chemistry Analyzer (Beckman Coulter, Brea, Calif.). Statistical analysis is a one way ANOVA with Dunnett's post hoc test or two-way student's t test where appropriate. P values less than 0.05 were considered statistically significant.

Assay [2] deals with T1, hGPR40 (Homo sapiens, UniProt O14842). The assay can be described thus: GPR40 IP-One HTRF assay in HEK293/GPR40 inducible cell lines. Also on record: expressed in transfected cells. Particulars: HEK293 cells with tetracycline-inducible human GPR40; read-out: hGPR40 IP1 EC50. The format is cell-based. The protocol:
GPR40 IP-One HTRF Assays in HEK293/GPR40 Inducible Cell Lines
Human, mouse and rat GPR40-mediated intracellular IP-One HTRF assays were established using human embryonic kidney HEK293 cells stably transfected with a tetracycline-inducible human, mouse or rat GPR40 receptor. Cells were routinely cultured in growth medium containing DMEM (Gibco Cat. #12430-047), 10% qualified FBS (Sigma, Cat. #F2442), 200 μg/ml hygromycin (Invitrogen, Cat. #16087-010) and 1.5 μg/ml blasticidin (Invitrogen, Cat. #R210-01). About 12-15 million cells were passed into a T175 tissue culture flask (BD FALCON® 353112) with growth medium and incubated for 16-18 hours (overnight) at 370 C with 5% CO2. The next day, assay medium was exchanged with growth medium containing 1000 ng/mL of tetracycline (Fluka Analytical, Cat. #87128) to induce GPR40 expression for 18-24 hours at […] incubator with 5% CO2. After induction, the cells were washed with PBS (Gibco, Cat. #14190-036) and detached with Cell Stripper (CELLGRO®, Cat. #25-056-CL). 10-20 mL growth medium were added to the flask and cells were collected in 50 mL tubes (FALCON®, Cat. #352098) and spun at 1000 RPM for 5 minutes. Culture medium was aspirated and the cells were resuspended in 10 mL of 1× IP-One Stimulation Buffer from the Cisbio IP-One kit (Cisbio, Cat. #62IPAPEJ). The cells were diluted to 1.4×10^6 cells/mL in Stimulation Buffer.
Test compounds were 3-fold, 11-point serially diluted in DMSO in a REMP assay plate (Matrix Cat. #4307) by BIOCEL® (Agilent). The compounds were transferred into an Echo plate (LABCYTE, Cat. #LP-0200) and […] of diluted compounds were transferred to an assay plate (proxi-plate from Perkin Elmer, Cat. #6008289) by Echo acoustic nano dispenser (LABCYTE, model ECHO550). 14 μL of the diluted cells were then added to the assay plate by Thermo (SN 836 330) CombiDrop and incubated at room temperature for 45 minutes. Then 3 μL of IP1 coupled to dye D2 from the Cisbio IP-One kit were added to the assay plate followed by 3 μL of Lumi4TM-Tb cryptate K from the kit. The plate was further incubated at room for 1 hour before reading on the Envision (Perkin Elmer Model2101) with an HTRF protocol. Activation data for the test compound over a range of concentrations was plotted as percentage activation of the test compound (100%=maximum response). After correcting for background [(sample read-mean of low control)/(mean of high control−mean of low control)](low control is DMSO without any compound), EC50 values were determined. The EC50 is defined as the concentration of test compound which produces 50% of the maximal response and was quantified using the 4 parameter logistic equation to fit the data.

Assay [3] has as its target T1, hGPR40. Kind of assay: FDSS-based intracellular calcium assay. The format is cell-based. Also noted: 3xFLAG; expressed in transfected cells. Particulars: intracellular Ca2+ response, cells expressing GPR40. The protocol: FDSS-Based Intracellular Calcium Assay
Compounds are dissolved in DMSO and diluted to desired concentrations with assay buffer and added to the cells as 3× solution (20 μL per well). Run fluorescence/luminescence reader FDSS (Hamamatsu) to read intracellular Ca^2+ response.

T1 sequence (O14842 whole entry): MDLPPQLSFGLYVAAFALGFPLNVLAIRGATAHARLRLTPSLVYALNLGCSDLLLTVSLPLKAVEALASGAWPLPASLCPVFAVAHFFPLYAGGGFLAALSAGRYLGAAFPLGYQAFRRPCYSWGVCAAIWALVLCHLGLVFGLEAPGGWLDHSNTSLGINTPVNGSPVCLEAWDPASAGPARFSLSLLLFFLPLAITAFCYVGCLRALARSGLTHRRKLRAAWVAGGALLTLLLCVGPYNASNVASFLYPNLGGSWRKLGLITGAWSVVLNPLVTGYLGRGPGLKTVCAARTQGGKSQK

For the compound `CCOc1ccc(F)c(N2CC[C@@H](Oc3ccc(N4N=C(C(F)(F)F)[C@@H](C)[C@@H]4CC(=O)O)cc3)[C@H](C)C2)c1` [Example 29, 2-((4S,5S)-1-(4-(((3R,4R)-1-(5-Ethoxy-2-fluorophenyl)-3-methylpiperidin-4-yl)oxy)phenyl)-4-methyl-3-(trifluoromethyl)-4,5-dihydro-1H-pyrazol-5-yl)acetic acid], in assay [1], the “Acute oral glucose tolerance (average of two experiments)” value was −52%. The results for the concentration for a half-maximal effect (EC50) in assay [2] and in assay [3] were 11 nM and 154 nM, respectively.
